Assay results taken from PubChem BioAssay AID1053121 (Broad Institute, 2014).
Values joined by “and” are separate entries in the source; they are usually repeats but may differ in a detail not shown here. Identical values can stand only once. Active and inactive are the calls of the source.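 Rule for the calls: active = fitted curve reaches 40% activation below the top valid dose in every replicate test, signal rising; inconclusive = replicate tests disagree on the call; inactive = all replicate tests inactive, including opposite-direction effects.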

Tested on: not listed separately
Assay: luciferase reporter signal increase in glioma cells, dose response, N-linked glycosylation inhibitor project, D54 ERlucT glioma cells, dry powder, set 6 (AID 1053121)
Conditions: D54 ERlucT glioma cells, NLG luciferase reporter gain-of-signal, 24 h; at 19.5 µM (top of the series)
For `O=C1CCNc2cc3ccccc3cc21`, the activation (reporter increase) was -83.9% (inactive). For `CN(C)S(=O)(=O)c1ccc(N2CCCC2)c(C(=O)Nc2ccccc2F)c1`, the activation (reporter increase) was -4.62% (inactive). In the case of `O=C(Cc1ccccc1)c1nnc(-c2ccccc2)o1`, the activation (reporter increase) is reported as -94.1% (inactive). With `CN(C)S(=O)(=O)c1ccc(N2CCCC2)c(C(=O)Nc2ccc(Br)cc2)c1` the activation (reporter increase) was 32% (inactive). With `CN(C)C(=O)c1cc(S(=O)(=O)N(C)C)ccc1N1CCCC1` the activation (reporter increase) was 8.83% (inactive). For `COc1ccc(-c2nnc(SCc3ccccc3)o2)cc1`, the activation (reporter increase) was -91.2% (inactive). In the case of `C/C(=N\NC(=O)c1c([N+](=O)[O-])c(C)nn1C)c1ccc(NC(=O)C2CCCC2)cc1`, the activation (reporter increase) is reported as -76.5% (inactive). With `Cc1cnc(NC(=O)c2cc(S(=O)(=O)N(C)c3ccccc3)ccc2N2CCCC2)s1` the activation (reporter increase) was 10.9% (inactive). With `Cc1cc(C)nc(/N=C(\N)Nc2ccc(OCc3ccccc3)cc2)n1` the activation (reporter increase) was -50% (inactive). For `CN(C)S(=O)(=O)c1ccc(N2CCCC2)c(C(=O)Nc2cccnc2)c1`, the activation (reporter increase) was 48.4% (inactive). For `CN(C)CCCN(Cc1cc2ccccc2[nH]c1=O)C(=O)Nc1ccccc1`, the activation (reporter increase) was -2.22% (inactive). With `CN(C)S(=O)(=O)c1ccc(N2CCCC2)c(C(=O)N2CCOCC2)c1` the activation (reporter increase) was 3.4% (inactive). For `Cc1cnc(NC(=O)c2cc(S(=O)(=O)N(C)C)ccc2N2CCNCC2)s1`, the activation (reporter increase) was -10.1% (inactive). With `CN(C)CCCN(Cc1cc2ccccc2[nH]c1=O)C(=O)NCc1ccccc1` the activation (reporter increase) was 0% (inactive). In the case of `COc1ccccc1CSc1nnc(-c2ccccc2)o1`, the activation (reporter increase) is reported as -67.6% (inactive). In the case of `COc1ccccc1-c1nnc(SCc2ccccc2)o1`, the activation (reporter increase) is reported as -20.7% (inactive). In the case of `CN(C)S(=O)(=O)c1ccc(N2CCCC2)c(C(=O)NC2CCCCC2)c1`, the activation (reporter increase) is reported as -20% (inactive). In the case of `Cc1nc(NC(=O)c2cc(S(=O)(=O)N(C)C)ccc2N2CCCC2)n[nH]1`, the activation (reporter increase) is reported as 14.6% (inactive). With `COc1cccc2sc(NC(=O)c3cc(S(=O)(=O)N(C)C)ccc3N3CCCC3)nc12` the activation (reporter increase) was 5.88% (inactive). For `Cc1cnc(NC(=O)c2cc(S(=O)(=O)N(CC(C)C)CC(C)C)ccc2N2CCCC2)s1`, the activation (reporter increase) was -35.5% (inactive). In the case of `COc1ccc(CSc2nnc(-c3ccccc3)o2)cc1`, the activation (reporter increase) is reported as -76.5% (inactive). With `c1ccc(CSc2nnc(-c3ccccc3)o2)cc1` the activation (reporter increase) was -94.1% (inactive). For `CN(C)S(=O)(=O)c1ccc(N2CCCC2)c(C(=O)Nc2ccncc2)c1`, the activation (reporter increase) was 16.1% (inactive). For `COc1ccc2sc(NC(=O)c3cc(S(=O)(=O)N(C)C)ccc3N3CCCC3)nc2c1`, the activation (reporter increase) was 29.4% (inactive). For `COc1ccccc1NC(=O)c1cc(S(=O)(=O)N(C)C)ccc1N1CCCC1`, the activation (reporter increase) was 30.1% (inactive). With `Cc1cnc(NC(=O)c2cccc(S(=O)(=O)N(C)C)c2)s1` the activation (reporter increase) was -7.17% (inactive). With `Brc1ccc(CSc2nnc(-c3ccccc3)o2)cc1` the activation (reporter increase) was -58.8% (inactive). With `CCCNS(=O)(=O)c1cccc(C(=O)OCc2cc(=O)oc3cc(OC)ccc23)c1` the activation (reporter increase) was -91.2% (inactive). With `O=C1CCN(Cc2ccccc2)c2cc3ccccc3cc21` the activation (reporter increase) was 30.6% (inactive). With `CN(C)S(=O)(=O)c1ccc(N2CCCC2)c(C(=O)Nc2ccccc2Cl)c1` the activation (reporter increase) was 5.18% (inactive). With `COc1ccc2c(COC(=O)c3cccc(S(=O)(=O)NCC(C)C)c3)cc(=O)oc2c1` the activation (reporter increase) was 19.5% (inactive). With `Cc1ccc2cc(CN(CCCN(C)C)C(=O)Nc3ccccc3)c(=O)[nH]c2c1C` the activation (reporter increase) was -11.1% (inactive). With `Cc1cc(=O)[nH]c(N/N=C/c2cc(C)n(CC(F)(F)F)c2C)n1` the activation (reporter increase) was -91.2% (inactive). For `Cc1ccccc1NC(=O)c1cc(S(=O)(=O)N(C)C)ccc1N1CCCC1`, the activation (reporter increase) was 8.74% (inactive).

Tested on: D54 ERlucT glioma cells, NLG luciferase reporter gain-of-signal, 24 h
Assay: as above
Conditions: not given
For `Cc1ccc2cc(CN(CCCN(C)C)C(=O)NCc3ccccc3)c(=O)[nH]c2c1C`, the AC40 was 2680 nM. `Cc1cnc(NC(=O)c2cc(S(=O)(=O)N(C)C)ccc2N2CCCCC2)s1` gave an AC40 of 13700 nM. `CN(C)S(=O)(=O)c1ccc(N2CCCC2)c(C(=O)Nc2nccs2)c1` showed an AC40 of 1910 nM. For `CCCCOc1ccccc1C1CC(=O)NC2=C1C(=O)CCC2` (configuration not stated), the AC40 was 948 nM. Work on `Nc1nc(=S)c2ncn([C@@H]3O[C@H](CO)[C@@H](O)[C@H]3O)c2[nH]1` yielded an AC40 of 771 nM. In the case of `CC(=O)N[C@H]1[C@@H](O[C@@H]2OC(C[C@@H](O)C3O[C@@H](n4ccc(=O)[nH]c4=O)[C@H](O)[C@@H]3O)[C@H](O)[C@H](O)[C@H]2NC(=O)/C=C/CCCCCCCCCCC(C)C)O[C@H](CO)[C@@H](O)[C@@H]1O` (some centres not stated), the AC40 is reported as 278 nM. With `Cc1cnc(NC(=O)c2cc(S(=O)(=O)NCc3ccccc3)ccc2N2CCCC2)s1` the AC40 was 3670 nM. With `Cc1cnc(NC(=O)c2cc(S(=O)(=O)N(C)C)ccc2N2CCC2)s1` the AC40 was 364 nM. For `Cc1nnc(NC(=O)c2cc(S(=O)(=O)N(C)C)ccc2N2CCCC2)s1`, the AC40 was 4570 nM. For `COC(=O)c1cn(C(=O)c2ccc(OC)cc2)c2ccccc12`, the AC40 was 1210 nM. In the case of `CCCOC(=O)c1[nH]c2c(c1C)C(=O)CC(c1cccs1)C2` (configuration not stated), the AC40 is reported as 1500 nM. With `Cc1ccc(NC(=O)c2cc(S(=O)(=O)N(C)C)ccc2N2CCCC2)cc1` the AC40 was 1240 nM. With `Cc1ccc(C(=O)c2cc([N+](=O)[O-])ccc2N2CCOCC2)cc1C` the AC40 was 1100 nM. In the case of `CN(C)S(=O)(=O)c1ccc(N2CCCC2)c(C(=O)Nc2ccccc2)c1`, the AC40 is reported as 1080 nM. In the case of `COc1ccc(NC(=O)c2cc(S(=O)(=O)N(C)C)ccc2N2CCCC2)cc1`, the AC40 is reported as 10300 nM. For `CCC1=Nc2cc(C(=O)NCCCOC)ccc2Sc2ccccc21`, the AC40 was 404 nM. For `Cc1cnc(NC(=O)c2cc(S(=O)(=O)N(C)C)ccc2C2CCCC2)s1`, the AC40 was 2210 nM. In the case of `Cc1cccc(C)c1OCCNC(=O)C(=O)NCc1ccco1`, the AC40 is reported as 3620 nM. With `Cc1cnc(NC(=O)c2cc(S(=O)(=O)N(C)C)ccc2N(C)C)s1` the AC40 was 5200 nM. Work on `COc1ccccc1OCC(=O)NNC(=O)c1ccoc1C` yielded an AC40 of 633 nM. Work on `CCN(CC)S(=O)(=O)c1ccc(N2CCCC2)c(C(=O)Nc2ncc(C)s2)c1` yielded an AC40 of 12000 nM. `Cc1ccc(Oc2ccc(S(=O)(=O)N3CCOCC3)cc2C(N)=O)c(-n2nc3ccccc3n2)c1` gave an AC40 of 3400 nM. `CC(=O)c1ccc(Oc2cc(C)nc(-n3nc(C)cc3C)n2)cc1` showed an AC40 of 645 nM. `Cc1ccc(/C=N/NC(=O)C2COc3ccccc3O2)s1` (configuration not stated) gave an AC40 of 1210 nM. `CCN(CC)CCOc1ccc2c(c1)C(=NNC(=O)c1ccccn1)c1cc(OCCN(CC)CC)ccc1-2` showed an AC40 of 3070 nM. Compound `CN(C)S(=O)(=O)c1ccc(N2CCCC2)c(C(=O)Nc2cccc(F)c2)c1` has an AC40 of 2610 nM. `Cc1[nH][nH]c(=O)c1C(c1ccc(-c2ccc(Cl)c(Cl)c2)o1)c1c(C)[nH][nH]c1=O` gave an AC40 of 1020 nM. Compound `COc1cc(C(=O)NCCOc2cc(C)cc(C)c2)cc(OC)c1OC` has an AC40 of 1850 nM. For `Cc1cnc(NC(=O)c2cc(S(=O)(=O)N(C)C)ccc2N2CCCC2)s1`, the AC40 was 421 nM and 69.3 nM and 209 nM. In the case of `CC(=O)N1CCC(=O)c2cc3ccccc3cc21`, the AC40 is reported as 2420 nM. Work on `CCOC(=O)COc1cccc2c(=O)n(CC(=O)NCc3ccccc3)ccc12` yielded an AC40 of 121 nM. `CCOC(=O)c1ccc(Oc2cc(C)nc(SC)n2)cc1` showed an AC40 of 3890 nM. For `Cc1csc(NC(=O)c2cc(S(=O)(=O)N(C)C)ccc2N2CCCC2)n1`, the AC40 was 575 nM. Work on `COc1cc(Nc2c3c(nc4ccccc24)CCCC3)cc(OC)c1OC` yielded an AC40 of 3590 nM. `Cc1cnc(NC(=O)c2cc(S(=O)(=O)N3CCCC3)ccc2N2CCCC2)s1` showed an AC40 of 934 nM. With `CCN(CC)c1ccc(S(=O)(=O)N(C)C)cc1C(=O)Nc1ncc(C)s1` the AC40 was 3210 nM. `Cc1cnc(NC(=O)c2cc(S(=O)(=O)N3CCCCC3)ccc2N2CCCC2)s1` gave an AC40 of 7070 nM. `Cc1ccc(CCC(=O)Nc2ncc(Cc3cc(Cl)ccc3Cl)s2)o1` showed an AC40 of 205 nM. With `COc1cccc(N2CCN(C(=O)c3ccc(CS(=O)c4ccc(C)cc4)o3)CC2)c1` (configuration not stated) the AC40 was 237 nM. In the case of `CCn1c2ccccc2c2cc(NC(=O)c3cc(OC)c(OC)c(OC)c3)ccc21`, the AC40 is reported as 41.9 nM. `Cc1cc(C)cc(C(=O)N2CC(=O)Nc3ccccc32)c1` gave an AC40 of 12100 nM. In the case of `CCN(CC)CCC(=O)Nc1cccc2c1C(=O)c1ccccc1C2=O`, the AC40 is reported as 729 nM. `COc1cc(-c2nnc(SCC3(c4ccc(Br)cc4)OCCO3)o2)cc(OC)c1OC` showed an AC40 of 1340 nM. In the case of `Cc1cc(NC(=O)CSc2nc(-c3ccco3)cc(C(F)(F)F)n2)no1`, the AC40 is reported as 434 nM. In the case of `O=C(N/N=C/c1ccc(Cl)cc1)c1sccc1OCc1ccc(F)cc1`, the AC40 is reported as 839 nM. `CCOc1ccc(S(=O)(=O)NCc2ccccn2)cc1NC(=O)c1ccccc1F` gave an AC40 of 1370 nM. Compound `Cc1cnc(NC(=O)c2cc(S(=O)(=O)N3CCNCC3)ccc2N2CCCC2)s1` has an AC40 of 9460 nM. For `COc1ccc(NC(=O)C(=O)c2cn(CC(=O)N3CCCC3)c3ccccc23)cc1`, the AC40 was 62.1 nM. With `CCOc1ccc(NC(=O)c2cc(OC)nc3ccccc23)cc1` the AC40 was 410 nM. With `CCN(CC)CCCNc1nc2cc(OC)c(OC)cc2c2nc(-c3ccccc3)nn12` the AC40 was 1660 nM. `Cc1cnc(NC(=O)c2cc(S(=O)(=O)N3CCOCC3)ccc2N2CCCC2)s1` showed an AC40 of 307 nM. Compound `CC(=O)c1cccc(NC(=O)CSc2ncc(C(=O)Nc3ccccc3)c(=O)n2C)c1` has an AC40 of 6870 nM. With `CN(C)S(=O)(=O)c1ccc(N2CCCC2)c(C(=O)Nc2nc3ccccc3s2)c1` the AC40 was 467 nM.
